Legend:
in vitro [1] = details: human, Caco-2
in vitro [2] = details: mouse, liver microsomes

Papp A→B (in vitro [1]): 8.8 ×10⁻⁶ cm/s | half-life (in vitro [2]): 30 min
Structure (SMILES): Cc1[nH]nc(-c2ccncc2)c1-c1ccc(-c2cccc(S(N)(=O)=O)c2)c(C2CC2)c1
